EP0613879A1, “PHELLODENDRINE ANALOGS AND ALLERGY TYPE IV SUPPRESSOR CONTAINING THE SAME AS ACTIVE INGREDIENT” (TSUMURA & CO., priority 1991, dated 1992)

Key:
[1] = test system: sole reaction in sheep red blood cells (SRBC); experiment: sole reaction to sheep red blood cells (SRBC), foot volume increase 24 hours after induction; assay type: in vivo, BALB/c mice; conditions: 3.0 x 10⁻⁴ mol/kg orally for four days after the sensitization
Experimental: The actions of the compounds of the present invention in the course of creation of the cellular immunity were studied using the sole reaction in sheep red blood cells (SRBC).
BALB/c mice (female, age: 7 weeks) were sensitized by injecting 0.2 ml of SRBC adjusted to 2.5 x 10⁵ cells/ml with a physiological saline solution into caudal vein. Four days after the sensitization, the volume of the right foot of the mice was measured. Then, 0.025 ml of SRBC from the same lot as above adjusted to 4 x 10⁹ cells/ml was subcutaneously injected into the right sole to induce a reaction. 24 hours after the reaction has been induced, the intensity of the reaction was determined by subtracting the right foot volume before the reaction from the volume after the reaction. The test compounds at a concentration of 3.0 x 10⁻⁴ mol/kg were orally administered for four days after the sensitization.

ICR mice = conditions: mouse, in vivo, po
Excerpt: Compounds obtained in Synthetic Examples 18, 35, and 66 were orally administered to ICR mice (each dose to each group consisting of 10 mice).

[2] = against Control 2 (5% ethanol-olive oil)
[3] = against Control 3 (Purified water)

| SMILES | Rate of suppression (%) [1, 2] | dose up to which no death was caused (ICR mice) | other results |
| --- | --- | --- | --- |
| CN(Cc1ccc(O)cc1)C(=O)c1cccc(O)c1 [Synthetic Example 25, N-(4-hydroxybenzyl)-N-methyl-3-hydroxybenzamide] | 26.7% |  |  |
| COc1ccc(CN(C)Cc2ccc(O)c(OC)c2)cc1O [Synthetic Example 35, N-(4-hydroxy-3-methoxybenzyl)-N-methyl-3-hydroxy-4-methoxybenzylamine] |  | ≤ 1,000 mg/kg |  |
| COc1ccc(CCNCCc2ccc(O)c(OC)c2)cc1O [Synthetic Example 66, N-(4-hydroxy-3-methoxyphenetyl)-3-hydroxy-4-methoxyphenetylamine] |  | ≤ 1,000 mg/kg |  |
| Oc1cccc(CNCc2cccc(O)c2)c1 [Synthetic Example 7, N,N-bis(3-hydroxybenzyl)amine] |  |  | Rate of suppression (%) [1, 3]: 54.4% |
| CCN(Cc1ccc(O)cc1)Cc1cccc(O)c1 [Synthetic Example 61, N-ethyl-N-(4-hydroxybenzyl)-3-hydroxybenzylamine] | 21.8% |  |  |
| COc1ccc(CC(=O)NCCc2ccc(O)c(OC)c2)cc1O [Synthetic Example 18, N-(4-hydroxy-3-methoxyphenetyl)-3-hydroxy-4-methoxyphenylacetamide] |  | ≤ 1,000 mg/kg |  |
| COc1ccc(CNCc2ccc(OC)cc2)cc1.O=C(O)/C=C\C(=O)O [Synthetic Example 46, N,N-bis(4-methoxybenzyl)amine maleate] |  |  | Rate of suppression (%) ([1]; against Control 1 (0.5% gum arabic-purified water)): 38.1% |
| COc1ccc(CN(C)Cc2cccc(OC)c2)cc1 [Synthetic Example 27, N-(4-methoxybenzyl)-N-methyl-3-methoxybenzylamine] |  |  | Rate of suppression (%) [1, 3]: 32.8% |
| CN(Cc1ccc(O)cc1)Cc1cccc(O)c1 [Synthetic Example 30, N-(4-hydroxybenzyl)-N-methyl-3-hydroxybenzylamine] | 33.2% |  |  |
